The values below are quoted from earlier work in article PMC3328449, “Inhibition of Diacylglycerol–Sensitive TRPC Channels by Synthetic and Natural Steroids” (PLoS ONE, 2012).

The subject of one data set is TRPC3. Set-up: method as in PMID 19289841. To be noted: read-out: half maximal inhibitory concentration (IC50), TRPC3; cited from earlier work.
The subject of a further data set is other TRPC channels. Further details: method as in PMID 19289841. To be noted: cited from earlier work.

Turning to `CCOC(=O)c1cnn(-c2ccc(NC(=O)C(Cl)=C(Cl)Cl)cc2)c1C(F)(F)F` [Pyr3], the IC50 with TRPC3 was 700 nM. The “Effects on other TRPC channels” value in the data set on other TRPC channels is on record as “without having effects”.
